Counter-ions that a name gives are not always drawn. Like-named read-outs stand apart in the source and are kept apart here.

One data set addresses T1, human α-thrombin (Homo sapiens, UniProt P00734).
T1 construct: human α-thrombin
The data set can be described thus: Assay of thrombin activity (chromogenic substrate S-2238). The class given is biochemical. The note with it: for IC50: 10 min pre-incubation at 37° C, substrate S-2238; for Ki: Hanes-Woolf analysis, S-2238 concentration varied. Here is the method: Thrombin inhibitory activity was assessed by pre-incubating the test compound at a variety of concentrations with human α-thrombin at 37° C. After 10 min, the chromogenic substrate H-D-Phe-Pipecolinyl-Arg-ρ-nitroanilide (S-2238) was added to the mixture and the change in absorbance measured over the following 8 min.

Data set [1] in a line: Determination of bioavailability / pharmacokinetics in rats. The class given is in vivo. The settings on record: male, Wistar Ola, plasma, rat, saline; for half-life: read-out: T½ (converted); for Vd: read-out: Vss. An excerpt:
Determination of Bioavailability of Compounds 1A, 2A and 3A in Rats
Male Wistar Ola rats (˜250 g). Food and water were available ad libitum throughout the studies.
For intravenous pharmacokinetic studies, catheters (Portex polythene—ID 0.58 mm, OD 0.96 mm with a tip made from SF Medical silicone tubing, SFM1-1350) were inserted into the right jugular vein under isoflurane anaesthesia. The tubing was exteriorised at the back of the neck, filled with heparinised saline (100 Um/ml) and stoppered. Animals were allowed a minimum of 48 h recovery before dosing.
Compounds 1A, 2A and 3A were administered orally (PO). Compounds 1B, 2B and 3B were administered intravenously (IV). Serial blood samples (for plasma) were taken from a lateral vein at points from 3 min to 24 hrs (terminal sample by cardiac puncture) according to a matrix design protocol (3 samples per time point). Plasma samples were stored at −20° C. until analysis.
Plasma samples were analyzed for the pertinent free acid thrombin derivatives 1B, 2B and 3B using an LC-MS method. Cmax (maximum plasma concentrations) and AUC values were determined from the mean plasma concentration—time profiles.
Noncompartmental pharmacokinetic analysis was performed using WinNonlin Professional 3.1 and 4.1.

Experiment in data set [2]: as above
It counts as in vivo. The settings on record: male, Wistar Ola, plasma, rat.

Where [3] appears, read: IV 5 mg/kg, mean of two studies.
Setting [4] is: PO 10 mg/kg of the free acid itself, saline.

Usually IC50 stands for the concentration needed to halve the response being measured. Lower therefore signals greater potency in that assay. The term Ki denotes a measure of affinity in units of concentration, obtained from inhibition or displacement. A lower Ki goes with tighter binding. On human α-thrombin, `CCCOC(=O)CN[C@@H](C(=O)N1CCC[C@H]1C(=O)NCc1ccc2c(N)nccc2c1)C(c1ccccc1)c1ccccc1` [Compound 1A, N-(2-oxo-2-propoxyethyl)-β-phenyl-D-phenylalanyl-N-[(1-amino-6-isoquinolinyl)methyl]-L-prolinamide] returned an IC50 of 0.013 µM and a Ki of 0.001 µM.
As usually defined, the AUC is the area under the concentration-time curve, a measure of exposure. The term clearance denotes the rate of elimination divided by the concentration. Usually bioavailability stands for the share of a dose that reaches the circulation, judged against a reference dose that is usually intravenous. Low readings indicate poor availability, high ones good availability. As usually defined, the Cmax is the peak of the concentration-time curve. As a reminder, the Tmax is the time from dosing to the highest level. Take `Cl.Nc1nccc2cc(CNC(=O)[C@@H]3CCCN3C(=O)[C@H](NCC(=O)O)C(c3ccccc3)c3ccccc3)ccc12` [Compound 1B, N-(carboxymethyl)-β-phenyl-D-phenylalanyl-N-[(1-amino-6-isoquinolyl)methyl]-L-prolinamide hydrochloride]: on human α-thrombin, 0.0126 µM corresponded to half-maximal inhibition (IC50) and the Ki was 0.0009 µM. Further, in data set [1] (setting [3]), the exposure (AUC) was found to be 4860 ng·h/mL, the clearance worked out at 17 mL/min/kg, the half-life is 19.2 min and the Vd is 0.48 L/kg. The compound also yielded a bioavailability in data set [2] (PO 10 mg/kg of the free acid itself vs IV) of 1.3%. Also, in data set [2] (setting [4]), the AUC stood at 119 ng·h/mL, the peak level (Cmax) was 35 ng/mL and the time to peak (Tmax) is 72 min.
As to `CCCOC(=O)CN[C@H](Cc1ccccc1)C(=O)N1CCC[C@H]1C(=O)NCc1ccc2c(N)nccc2c1` [Compound 2A, N-(2-propoxy-2-oxoethyl)-D-phenylalanyl-N-[(1-amino-6-isoquinolyl)methyl]-L-prolinamide hydrochloride], at human α-thrombin, half-maximal inhibition (IC50) was put at 0.573 µM and the affinity, expressed as Ki, was 0.0345 µM.
Turning to `Nc1nccc2cc(CNC(=O)[C@@H]3CCCN3C(=O)[C@@H](Cc3ccccc3)NCC(=O)O)ccc12` [Compound 2B, N-(carboxymethyl)-D-phenylalanyl-N-[(1-amino-6-isoquinolyl)methyl]-L-prolinamide trifluoroacetate], in data set [1] (IV 2 mg/kg), the AUC is 659 ng·h/mL, the clearance was determined as 54 mL/min/kg, the half-life is 36.6 min and the Vd was 2.4 L/kg.
At human α-thrombin, `CCCOC(=O)CN[C@H](Cc1ccc(OC)cc1)C(=O)N1CCC[C@H]1C(=O)NCc1ccc2c(N)nccc2c1` [Compound 3A, N-(2-propoxy-2-oxoethyl)-O-methyl-D-tyrosinyl-N-[(1-amino-6-isoquinolyl)methyl]-L-prolinamide hydrochloride] had an IC50 of 0.197 µM and a Ki of 0.0018 µM.
At human α-thrombin, `COc1ccc(C[C@@H](NCC(=O)O)C(=O)N2CCC[C@H]2C(=O)NCc2ccc3c(N)nccc3c2)cc1` [Compound 3B, N-(carboxymethyl)-O-methyl-D-tyrosinyl-N-[(1-amino-6-isoquinolyl)methyl]-L-prolinamide trifluoroacetate] displayed a 50% inhibitory concentration (IC50) of 0.358 µM and an inhibition constant Ki of 0.0054 µM. Moreover, in data set [1] (IV 2 mg/kg), the AUC amounted to 1010 ng·h/mL, the clearance amounted to 34 mL/min/kg, the half-life is 9.6 min and the Vd was 0.46 L/kg.

(Values after US8299091B2, “Aminoisoquinoline thrombin inhibitor with improved bioavailability” (MSD Oss B.V., priority 2006, dated 2012).)
